Measured values taken from ChEMBL document CHEMBL1201862, “PubChem BioAssay data set” (2004).
The source made the active and inactive calls.

Columns and labels:
[1] = target: T1, Short transient receptor potential channel 4 (Mus musculus, UniProt Q9QUQ5); assay: mouse TRPC4 channel activators, dose response, cell-based, HEK293 TRPC4/mu-opioid, Fluo-4 calcium (AID 434937); type: functional
T1 sequence (Q9QUQ5 whole entry): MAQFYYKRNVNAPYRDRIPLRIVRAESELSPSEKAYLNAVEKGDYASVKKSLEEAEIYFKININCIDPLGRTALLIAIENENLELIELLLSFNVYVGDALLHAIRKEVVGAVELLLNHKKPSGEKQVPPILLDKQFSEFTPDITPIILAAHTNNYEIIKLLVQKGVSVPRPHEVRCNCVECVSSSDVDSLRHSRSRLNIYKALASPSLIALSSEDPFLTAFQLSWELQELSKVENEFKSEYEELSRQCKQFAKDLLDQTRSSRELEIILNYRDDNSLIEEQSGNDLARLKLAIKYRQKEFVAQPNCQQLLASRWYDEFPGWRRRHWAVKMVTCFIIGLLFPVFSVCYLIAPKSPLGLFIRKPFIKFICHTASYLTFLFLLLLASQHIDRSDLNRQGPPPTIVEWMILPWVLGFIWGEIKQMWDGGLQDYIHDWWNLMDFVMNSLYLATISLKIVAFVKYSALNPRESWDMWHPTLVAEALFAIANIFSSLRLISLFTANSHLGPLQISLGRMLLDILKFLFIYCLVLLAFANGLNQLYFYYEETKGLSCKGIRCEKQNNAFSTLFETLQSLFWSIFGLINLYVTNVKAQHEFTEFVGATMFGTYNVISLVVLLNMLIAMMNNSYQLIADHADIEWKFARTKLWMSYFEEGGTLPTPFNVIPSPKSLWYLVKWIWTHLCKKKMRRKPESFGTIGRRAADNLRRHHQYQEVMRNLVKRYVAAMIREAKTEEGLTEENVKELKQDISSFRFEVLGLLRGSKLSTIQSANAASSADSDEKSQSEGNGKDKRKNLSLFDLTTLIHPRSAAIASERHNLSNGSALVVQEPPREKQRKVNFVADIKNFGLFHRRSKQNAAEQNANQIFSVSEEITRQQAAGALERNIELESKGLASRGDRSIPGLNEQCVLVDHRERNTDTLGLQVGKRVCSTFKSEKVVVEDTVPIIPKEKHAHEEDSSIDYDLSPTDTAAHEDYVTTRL

[2] = target: T2, Polyadenylate-binding protein 1 (Homo sapiens, UniProt P11940); assay: PABP1 MLLE–PAM2 binding inhibitor potency, dose response, biochemical, fluorescence polarization, FITC-PAM2 peptide (AID 602259); type: functional; settings: read-out: IC50_Mean
T2 sequence (P11940 whole entry): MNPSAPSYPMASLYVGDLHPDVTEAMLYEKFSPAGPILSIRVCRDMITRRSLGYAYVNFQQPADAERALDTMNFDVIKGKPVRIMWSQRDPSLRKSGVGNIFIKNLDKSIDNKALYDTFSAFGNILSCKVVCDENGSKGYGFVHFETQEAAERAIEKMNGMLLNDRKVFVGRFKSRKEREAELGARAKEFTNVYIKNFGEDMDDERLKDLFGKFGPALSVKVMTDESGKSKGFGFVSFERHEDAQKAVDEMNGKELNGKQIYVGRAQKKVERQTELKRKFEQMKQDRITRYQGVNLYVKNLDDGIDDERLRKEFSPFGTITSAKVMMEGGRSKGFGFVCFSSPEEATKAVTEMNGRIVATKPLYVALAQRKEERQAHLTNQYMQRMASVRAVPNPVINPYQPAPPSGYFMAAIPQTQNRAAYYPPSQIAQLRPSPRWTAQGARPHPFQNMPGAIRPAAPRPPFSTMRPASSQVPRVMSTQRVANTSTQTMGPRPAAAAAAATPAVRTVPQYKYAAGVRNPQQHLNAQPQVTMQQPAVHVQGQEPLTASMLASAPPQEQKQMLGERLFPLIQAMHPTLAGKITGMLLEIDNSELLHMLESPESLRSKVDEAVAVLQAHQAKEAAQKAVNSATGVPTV

[3] = target: T2, Polyadenylate-binding protein 1; assay: PABP1 MLLE–PAM2 interaction inhibitors, dose response, miRNA deadenylation inhibitor project, biochemical, fluorescence polarization, Cy5-PAM2 peptide, secondary (AID 602260); type: functional; settings: read-out: IC50_Mean
[4] = target: T3, Corticotropin-releasing factor receptor 2/Corticotropin-releasing factor-binding protein (Homo sapiens, UniProt P24387+Q13324); assay: activators of CRF receptor 2 with binding protein – uHTS hits, confirmation (AID 602473); type: functional; settings: read-out: EC50_Mean
T3 sequence (Q13324 whole entry): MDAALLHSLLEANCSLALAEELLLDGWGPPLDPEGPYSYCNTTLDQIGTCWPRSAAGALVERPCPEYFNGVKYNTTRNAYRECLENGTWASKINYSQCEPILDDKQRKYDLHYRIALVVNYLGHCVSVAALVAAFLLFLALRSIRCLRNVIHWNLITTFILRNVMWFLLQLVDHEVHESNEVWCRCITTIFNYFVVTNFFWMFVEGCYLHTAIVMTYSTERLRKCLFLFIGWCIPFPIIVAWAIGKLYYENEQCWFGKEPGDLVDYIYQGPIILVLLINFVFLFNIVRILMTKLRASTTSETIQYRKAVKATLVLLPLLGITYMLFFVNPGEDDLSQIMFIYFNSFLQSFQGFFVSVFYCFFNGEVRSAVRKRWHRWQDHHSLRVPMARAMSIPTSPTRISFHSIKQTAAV
T3 sequence (P24387 whole entry): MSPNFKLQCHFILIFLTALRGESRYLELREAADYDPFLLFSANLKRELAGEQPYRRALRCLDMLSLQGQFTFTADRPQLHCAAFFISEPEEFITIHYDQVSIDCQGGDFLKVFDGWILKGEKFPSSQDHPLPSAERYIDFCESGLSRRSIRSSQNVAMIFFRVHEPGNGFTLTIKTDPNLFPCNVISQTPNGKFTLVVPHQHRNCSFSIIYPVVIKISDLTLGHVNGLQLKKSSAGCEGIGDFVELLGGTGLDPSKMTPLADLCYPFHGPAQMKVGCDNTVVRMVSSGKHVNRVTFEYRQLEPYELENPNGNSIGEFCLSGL

Cytochrome P450 3A4 = Cytochrome P450 3A4 (Homo sapiens, UniProt P08684);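 note: CYP3A4 tested as one member of a cytochrome P450 panel screen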
Sequence of Cytochrome P450 3A4 (P08684 whole entry): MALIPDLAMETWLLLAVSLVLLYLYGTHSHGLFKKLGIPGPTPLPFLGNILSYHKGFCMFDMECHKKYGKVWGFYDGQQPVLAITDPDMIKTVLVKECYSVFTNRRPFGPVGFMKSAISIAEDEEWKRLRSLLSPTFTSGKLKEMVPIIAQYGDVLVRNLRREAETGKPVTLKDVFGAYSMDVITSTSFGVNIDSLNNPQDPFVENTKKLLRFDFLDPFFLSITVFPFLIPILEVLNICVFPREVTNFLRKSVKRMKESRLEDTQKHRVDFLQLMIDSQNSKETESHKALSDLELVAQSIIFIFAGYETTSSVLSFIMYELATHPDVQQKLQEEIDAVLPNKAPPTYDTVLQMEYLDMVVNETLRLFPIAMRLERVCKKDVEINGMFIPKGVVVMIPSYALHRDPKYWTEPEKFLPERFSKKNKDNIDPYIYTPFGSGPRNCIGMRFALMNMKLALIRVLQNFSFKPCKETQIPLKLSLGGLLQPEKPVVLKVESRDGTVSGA

Cytochrome P450 2C19 = Cytochrome P450 2C19 (Homo sapiens, UniProt P33261); assay: Cytochrome panel assay with activity outcomes. Panel member name: p450-cyp2c19 Compounds with AC50 equal or less than 10 uM are considered active; type: functional; settings: read-out: AC50
Sequence of Cytochrome P450 2C19 (P33261 whole entry): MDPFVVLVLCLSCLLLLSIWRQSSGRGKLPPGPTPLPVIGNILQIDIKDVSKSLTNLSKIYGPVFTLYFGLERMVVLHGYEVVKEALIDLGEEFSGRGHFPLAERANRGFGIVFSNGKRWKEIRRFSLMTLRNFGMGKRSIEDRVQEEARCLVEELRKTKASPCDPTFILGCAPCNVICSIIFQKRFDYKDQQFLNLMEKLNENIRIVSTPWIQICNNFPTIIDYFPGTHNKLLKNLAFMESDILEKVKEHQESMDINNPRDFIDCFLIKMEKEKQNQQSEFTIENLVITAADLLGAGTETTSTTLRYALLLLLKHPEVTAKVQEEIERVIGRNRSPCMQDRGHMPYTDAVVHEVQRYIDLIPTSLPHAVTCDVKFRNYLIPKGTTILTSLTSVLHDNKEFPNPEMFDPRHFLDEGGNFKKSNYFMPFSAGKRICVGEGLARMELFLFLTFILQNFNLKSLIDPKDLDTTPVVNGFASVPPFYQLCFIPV

Cytochrome P450 2C9 = Cytochrome P450 2C9 (Homo sapiens, UniProt P11712)
Sequence of Cytochrome P450 2C9 (P11712 whole entry): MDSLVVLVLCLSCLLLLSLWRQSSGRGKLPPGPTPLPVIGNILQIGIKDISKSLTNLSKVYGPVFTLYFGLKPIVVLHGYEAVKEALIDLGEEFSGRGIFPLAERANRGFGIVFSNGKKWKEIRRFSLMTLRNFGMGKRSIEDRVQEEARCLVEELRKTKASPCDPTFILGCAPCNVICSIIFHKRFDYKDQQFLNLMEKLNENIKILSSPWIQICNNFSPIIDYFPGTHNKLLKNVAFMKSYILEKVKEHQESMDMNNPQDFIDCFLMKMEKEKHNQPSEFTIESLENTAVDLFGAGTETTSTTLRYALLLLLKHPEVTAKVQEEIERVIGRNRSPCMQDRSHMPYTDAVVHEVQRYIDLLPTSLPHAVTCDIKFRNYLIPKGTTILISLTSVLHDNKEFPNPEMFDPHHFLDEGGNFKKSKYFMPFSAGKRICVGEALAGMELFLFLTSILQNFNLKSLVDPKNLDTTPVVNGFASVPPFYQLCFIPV

Streptococcus = assay: Group A Streptococcus viability loss, dose response, counter-screen for streptokinase expression inhibitor project, luminescence, BacTiterGlo (AID 1915); type: functional, organism-based;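 note: potency for reduction of bacterial viability or growth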
[5] = Luminescence Cell-Based Dose Response HTS to Identify Activators of Luciferase Translation or Activity in H4 […] Cells. [Related pubchem assays: 1829 (Project Summary), 1814 (Primary HTS)]; type: functional
Streptokinase A = target: T4, Streptokinase A (Streptococcus pyogenes serotype M1, UniProt P10520); assay: S. pyogenes streptokinase expression inhibitors, potency, dose response, plasminogen activation absorbance, OD405 (AID 1914); type: functional, Streptococcus pyogenes M1 GAS;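 note: secreted streptokinase activity via plasminogen activation per viability signal from cell pellet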
T4 sequence (P10520 whole entry): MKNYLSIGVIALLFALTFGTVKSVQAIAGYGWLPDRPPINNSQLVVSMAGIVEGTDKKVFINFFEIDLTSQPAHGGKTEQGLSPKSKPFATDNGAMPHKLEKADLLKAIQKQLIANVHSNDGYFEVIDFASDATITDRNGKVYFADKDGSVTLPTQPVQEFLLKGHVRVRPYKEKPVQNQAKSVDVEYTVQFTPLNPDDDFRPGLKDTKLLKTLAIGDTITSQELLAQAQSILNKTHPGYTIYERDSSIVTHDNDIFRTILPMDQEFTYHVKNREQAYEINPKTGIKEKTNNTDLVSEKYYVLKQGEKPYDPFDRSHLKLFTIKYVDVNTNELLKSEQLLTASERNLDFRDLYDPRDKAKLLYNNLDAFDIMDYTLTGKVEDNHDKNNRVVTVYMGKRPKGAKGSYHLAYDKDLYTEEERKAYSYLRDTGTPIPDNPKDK

[6] = test system: Streptococcus sp. 'group A'; assay: growth inhibition of control SK(-) GAS strain, dose response, counter-screen for streptokinase expression inhibitor project, luminescence, kanamycin, BacTiterGlo, confirmation (AID 1900); type: functional, organism-based
H4 = assay: Luminescence Cell-Based Dose Response HTS to Identify Activators of 5'UTR Stem-Loop Driven Prion Protein mRNA Translation in H4 Neuroglioblastoma Cells. [Related pubchem assays: 1829 (Project Summary), 1814 (Primary HTS)]; type: functional; settings: Homo sapiens
[7] = target: T5, High affinity choline transporter 1 (Homo sapiens, UniProt Q9GZV3); assay: CHT inhibitors, dose response, cell-based, 5-point CRC, membrane potential dye (AID 504840); type: functional
T5 sequence (Q9GZV3 whole entry): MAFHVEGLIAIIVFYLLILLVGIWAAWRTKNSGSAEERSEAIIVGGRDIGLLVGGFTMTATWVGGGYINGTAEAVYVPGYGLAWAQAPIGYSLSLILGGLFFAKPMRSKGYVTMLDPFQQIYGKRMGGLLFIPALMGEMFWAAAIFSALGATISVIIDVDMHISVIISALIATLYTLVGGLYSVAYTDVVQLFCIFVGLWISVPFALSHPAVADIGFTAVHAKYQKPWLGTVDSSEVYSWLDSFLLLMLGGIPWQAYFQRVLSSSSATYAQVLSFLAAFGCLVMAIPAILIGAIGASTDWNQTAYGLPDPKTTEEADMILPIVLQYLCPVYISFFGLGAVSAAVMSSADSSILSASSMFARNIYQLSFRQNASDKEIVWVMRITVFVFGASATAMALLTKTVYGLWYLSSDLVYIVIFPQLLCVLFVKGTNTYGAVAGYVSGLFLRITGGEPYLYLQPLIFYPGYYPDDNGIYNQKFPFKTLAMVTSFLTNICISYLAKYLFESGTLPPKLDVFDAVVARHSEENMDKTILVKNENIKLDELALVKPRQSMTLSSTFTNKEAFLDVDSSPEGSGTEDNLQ

Leucine aminopeptidase = target: T6, Leucine aminopeptidase (Plasmodium falciparum 3D7, UniProt Q8IL11); assay: P. falciparum M17LAP inhibitors, primary screen, biochemical, fluorogenic H-Leu-NHMec substrate, 1536-well (AID 1619); type: functional
T6 sequence (Q8IL11 whole entry): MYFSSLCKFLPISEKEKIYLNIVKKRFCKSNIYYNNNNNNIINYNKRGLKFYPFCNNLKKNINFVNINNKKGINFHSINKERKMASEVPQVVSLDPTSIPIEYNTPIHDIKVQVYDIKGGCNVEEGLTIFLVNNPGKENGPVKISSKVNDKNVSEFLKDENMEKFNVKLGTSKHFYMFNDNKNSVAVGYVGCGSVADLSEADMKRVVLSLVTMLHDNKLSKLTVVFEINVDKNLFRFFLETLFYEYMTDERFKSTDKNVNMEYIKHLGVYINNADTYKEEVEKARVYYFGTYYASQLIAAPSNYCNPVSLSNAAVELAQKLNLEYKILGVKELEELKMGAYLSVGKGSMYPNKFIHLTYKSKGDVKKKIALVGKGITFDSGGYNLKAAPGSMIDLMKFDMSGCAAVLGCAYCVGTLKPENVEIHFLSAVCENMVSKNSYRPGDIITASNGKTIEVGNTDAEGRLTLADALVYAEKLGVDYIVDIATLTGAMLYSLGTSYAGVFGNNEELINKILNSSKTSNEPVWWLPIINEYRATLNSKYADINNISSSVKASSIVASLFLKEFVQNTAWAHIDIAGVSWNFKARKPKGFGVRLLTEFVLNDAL

[8] = target: T7, Microphthalmia-associated transcription factor (Homo sapiens, UniProt O75030); assay: TRPM1 promoter luciferase signal decrease, dose response, MITF inhibitor project, cell-based, SK-MEL-5, cherry-picked, set 3 (AID 493073); type: functional
T7 sequence (O75030 whole entry): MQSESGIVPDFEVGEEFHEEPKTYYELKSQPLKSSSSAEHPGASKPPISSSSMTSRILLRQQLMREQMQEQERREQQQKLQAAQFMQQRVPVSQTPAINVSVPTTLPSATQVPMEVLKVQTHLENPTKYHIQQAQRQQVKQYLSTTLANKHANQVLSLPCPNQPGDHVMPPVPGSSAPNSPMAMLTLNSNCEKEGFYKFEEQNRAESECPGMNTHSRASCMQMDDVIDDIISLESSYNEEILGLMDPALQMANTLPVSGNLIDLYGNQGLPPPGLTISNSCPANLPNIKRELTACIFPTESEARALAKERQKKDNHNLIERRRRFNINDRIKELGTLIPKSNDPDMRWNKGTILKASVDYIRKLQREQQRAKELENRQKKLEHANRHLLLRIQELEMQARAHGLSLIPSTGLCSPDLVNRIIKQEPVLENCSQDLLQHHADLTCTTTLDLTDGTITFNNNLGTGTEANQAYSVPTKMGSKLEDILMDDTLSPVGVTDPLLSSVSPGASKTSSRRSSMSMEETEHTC

[9] = target: FAD-linked sulfhydryl oxidase ALR (Homo sapiens, UniProt P55789); assay: inhibitors of human ALR sulfhydryl oxidase, dose response, biochemical, H2O2 detection, luminescence, cherry-pick (AID 493248)
Sequence of FAD-linked sulfhydryl oxidase ALR (P55789 whole entry): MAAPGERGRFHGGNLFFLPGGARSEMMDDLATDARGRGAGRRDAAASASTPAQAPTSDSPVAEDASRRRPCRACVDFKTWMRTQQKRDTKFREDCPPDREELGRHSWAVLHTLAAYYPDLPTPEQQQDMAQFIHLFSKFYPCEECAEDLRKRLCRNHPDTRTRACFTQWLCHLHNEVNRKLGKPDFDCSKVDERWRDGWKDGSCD

[10] = inhibitors of intracellular T. cruzi replication, confirmation, NIH3T3 host cells, beta-gal luminescence (AID 2044); type: functional, cell-based;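 note: intracellular parasites grown in NIH/3T3 mouse fibroblasts as host cells; luminescent beta-galactosidase reporter signal from transgenic T. cruzi replicating inside host cells; inhibitors lower the luminescence signal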
[11] = cytotoxicity toward NIH3T3 fibroblasts, dose response, counter-screen, cell-based, ATP luminescence, mouse fibroblasts (AID 2010); type: functional;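 note: cells exposed to compound for about 90 hours before reading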
Cytochrome P450 2D6 = Cytochrome P450 2D6 (Homo sapiens, UniProt P10635);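 note: CYP2D6 member of a cytochrome P450 panel assay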
Sequence of Cytochrome P450 2D6 (P10635 whole entry): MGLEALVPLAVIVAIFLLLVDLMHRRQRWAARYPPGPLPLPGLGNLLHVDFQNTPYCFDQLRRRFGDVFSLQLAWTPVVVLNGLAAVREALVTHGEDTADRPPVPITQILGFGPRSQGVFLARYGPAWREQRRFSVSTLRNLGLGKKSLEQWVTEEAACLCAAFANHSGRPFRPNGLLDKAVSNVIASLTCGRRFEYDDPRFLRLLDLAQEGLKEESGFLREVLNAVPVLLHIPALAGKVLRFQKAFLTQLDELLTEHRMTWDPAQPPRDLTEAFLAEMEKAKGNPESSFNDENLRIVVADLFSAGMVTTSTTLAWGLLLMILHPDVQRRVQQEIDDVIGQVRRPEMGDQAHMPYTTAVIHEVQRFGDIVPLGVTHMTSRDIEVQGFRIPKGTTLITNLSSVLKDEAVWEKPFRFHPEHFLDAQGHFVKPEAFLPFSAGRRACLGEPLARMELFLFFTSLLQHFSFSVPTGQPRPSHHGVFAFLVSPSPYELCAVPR

SMILES: CC12CCCCN1CCCc1c2[nH]c2ccccc12 (centres undefined)
- EC50 [1]: 4.22 µM (active)
- IC50 [2]: > 66 µM (inactive)
- IC50 [3]: > 66 µM (inactive)
- EC50 [4]: 4.38 µM (active)

SMILES: CCOC(=O)C1(CCCc2ccccc2)CCN(Cc2cn(CC)nc2C)CC1
- EC50 [1]: 0.119 µM (active)

SMILES: COc1ccc(/C=C/CN2CCCC(C(=O)c3ccc(OC)c(F)c3)C2)cc1 (centres undefined)
- EC50 [1]: 10.6 µM (active)

SMILES: COc1ccc(NC(=O)c2cc(-c3ccccc3Cl)no2)cc1
- AC50 (Cytochrome P450 3A4): 20 µM (inconclusive)
- AC50 (Cytochrome P450 2C19): 2.82 µM (inconclusive)
- AC50 (Cytochrome P450 2C9): inconclusive

SMILES: CCOc1c(OC(C)=O)ccc(/C=C/c2ccc3cccc(OC(C)=O)c3n2)c1[N+](=O)[O-]
- EC50 (Streptococcus): 8.24 µM (active)
- EC50 [5]: 8.52 µM (active)
- EC50 (Streptokinase A): > 150 µM (not active)
- EC50 [6]: 1.49 µM (active)
- EC50 (H4): 8.07 µM (active)
- AC50 (Cytochrome P450 2C9): inconclusive

SMILES: CCN1CCN(c2c(Cl)cccc2NC(=O)c2ccc([N+](=O)[O-])cc2)CC1
- EC50 [1]: 0.421 µM (active)

SMILES: CC(/C=C1\SC(=O)N(CCCC(=O)O)C1=O)=C\c1ccccc1
- IC50 [7]: 12.6 µM (active)
- IC50 (Leucine aminopeptidase): 15.8 µM (active)
- AC50 [8]: 2.36 µM (active)
- AC50 [9]: 4.84 µM (active)

SMILES: Cc1cc(Br)cc(C)c1OCCCCN(C)C.O=C(O)C(=O)O
- EC50 [10]: 0.196 µM (active)
- EC50 [11]: > 30 µM (not active)
- AC50 (Cytochrome P450 2C9): inconclusive

SMILES: O=C(Nc1ccc(Cl)cc1)N1CCC(c2nc(-c3cccs3)no2)CC1
- EC50 [1]: 3.35 µM (active)

SMILES: O=C(COc1ccc2ccccc2c1Br)NNC(=O)Nc1ccccc1
- AC50 (Cytochrome P450 2C9): inconclusive

SMILES: Cc1ccc(/C=N/NC(=O)C2CCN(Cc3ccc(F)cc3Cl)CC2)o1
- AC50 (Cytochrome P450 2D6): 35.5 µM (inconclusive)
- AC50 (Cytochrome P450 3A4): 5.01 µM (inconclusive)
- AC50 (Cytochrome P450 2C19): 31.6 µM (inconclusive)
- AC50 (Cytochrome P450 2C9): inconclusive
